Biological target: GSK-3β (AA 1-420) (Homo sapiens, UniProt P49841)
Assay: Inhibition of GSK-3, standard coupled enzyme system
Format: biochemical
Conditions: 20 μM ATP, 300 μM peptide, 20 nM GSK-3β, 30° C.
Method: Compounds were screened for their ability to inhibit GSK-3β (AA 1-420) activity using a standard coupled enzyme system (Fox et al. Protein Sci. 7, p. 2249 (1998)). Reactions were carried out in a solution containing 100 mM HEPES (pH 7.5), 10 mM MgCl2, 25 mM NaCl, 300 μM NADH, 1 mM DTT and 1.5% DMSO. Final substrate concentrations in the assay were 20 μM ATP (Sigma Chemicals, St Louis, Mo.) and 300 μM peptide (American Peptide, Sunnyvale, Calif.). Reactions were carried out at 30° C. and 20 nM GSK-3β. Final concentrations of the components of the coupled enzyme system were 2.5 mM phosphoenolpyruvate, 300 μM NADH, 30 μg/ml pyruvate kinase and 10 μg/ml lactate dehydrogenase.
An assay stock buffer solution was prepared containing all of the reagents listed above with the exception of ATP and the test compound of interest. The assay stock buffer solution (175 μl) was incubated in a 96 well plate with 5 μl of the test compound of interest at final concentrations spanning 0.002 μM to 30 μM at 30° C. for 10 min. Typically, a 12 point titration was conducted by preparing serial dilutions (from 10 mM compound stocks) with DMSO of the test compounds in daughter plates. The reaction was initiated by the addition of 20 μl of ATP (final concentration 20 μM). Rates of reaction were obtained using a Molecular Devices Spectramax plate reader (Sunnyvale, Calif.) over 10 min at 30° C. The Ki values were determined from the rate data as a function of inhibitor concentration.

GSK-3β (AA 1-420), sequence (P49841 whole entry, species assumed, the tested form may be a part): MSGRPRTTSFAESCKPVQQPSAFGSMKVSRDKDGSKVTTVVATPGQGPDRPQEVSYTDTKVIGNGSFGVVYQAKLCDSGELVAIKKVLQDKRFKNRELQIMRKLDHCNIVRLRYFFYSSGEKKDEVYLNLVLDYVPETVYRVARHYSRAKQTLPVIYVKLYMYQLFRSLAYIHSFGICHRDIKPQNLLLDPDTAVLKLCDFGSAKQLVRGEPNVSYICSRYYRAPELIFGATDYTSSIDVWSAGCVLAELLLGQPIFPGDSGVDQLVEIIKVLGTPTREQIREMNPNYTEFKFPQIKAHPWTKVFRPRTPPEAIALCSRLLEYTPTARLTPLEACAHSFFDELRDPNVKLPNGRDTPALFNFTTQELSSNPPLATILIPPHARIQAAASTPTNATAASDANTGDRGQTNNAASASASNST

SMILES | Ki
COc1cccc(-n2nc3c(N)n[nH]c3cc2=O)c1 [Compound I-1] | < 4 µM
Nc1n[nH]c2cc(=O)n(-c3ccc(Oc4ccccc4)cc3)nc12 [Compound I-4] | < 4 µM
COc1cc2ncnc(Nc3n[nH]c4cc(=O)n(-c5cccc(C(F)(F)F)c5)nc34)c2cc1OC [Compound I-6] | < 4 µM
Nc1n[nH]c2cc(=O)n(-c3cccc(Cl)c3)nc12 [Compound I-8] | < 4 µM
Nc1n[nH]c2cc(=O)n(-c3cccc([N+](=O)[O-])c3)nc12 [Compound I-7] | < 4 µM

Further lines, results first:

Ki | SMILES
< 4 µM | Nc1n[nH]c2cc(=O)n(-c3cccc(S(N)(=O)=O)c3)nc12 [Compound I-9]
< 4 µM | Cc1ccc(-n2nc3c(N)n[nH]c3cc2=O)cc1 [Compound I-5]
< 4 µM | Nc1n[nH]c2cc(=O)n(-c3ccccc3)nc12 [Compound I-2]

— patent US8653088B2, “Compositions useful as inhibitors of protein kinases” (Vertex Pharmaceuticals Incorporated, priority 2003, dated 2014)
